The record followed here is patent publication US20260139222A1, “SYSTEMS WITH BIO-ENGINEERED ADHESIVE SILOXANE SUBSTRATE OF TUNABLE STIFFNESS AND METHODS OF USE THEREOF” (NUTECH VENTURES, priority 2022, published 2026).

The test system of assay [1] is Nrf2-related genes in HTR8 cells. Particulars: sulforaphane treatment. As to the method:
Sulforaphane (SFN) is a naturally occurring compound present in cruciferous vegetables like broccoli, watercress, Brussels sprouts, cabbage, and cauliflower. […] As a potent Nrf2 activator, SFN affects the expression of approximately 200 genes, including those involved in antioxidant and anti-inflammatory processes. To explore the impact of sulforaphane treatment on the expression levels of Nrf2-related genes, HTR8 cells were cultured on 8 kPa, 25 kPa, and 55 kPa BEASTS surfaces and the gene expression was analyzed by RT-PCR.
Gene Expression analysis of the HTR8 cells: Cells were cultured on BEASTS substrates of different stiffness levels (8 kPa, 25 kPa, and 55 kPa) for four days. After the culture, the total RNA was isolated from the HTR8 cells using Trizol following the manufacturer's instructions. RNA was extracted from the aqueous phase of the cell lysates by adding chloroform, followed by
RNA precipitation using isopropyl alcohol and rinsed with 75% ethanol. The RNA pellet was quantified and quality-checked using a spectrophotometer and then reverse-transcribed using the iScript™ cDNA synthesis kit. Subsequently, the relative expression levels of the target genes were analyzed using quantitative real-time PCR with SYBR Green Master Mix, and GAPDH was used as the housekeeping gene. The […] was employed for data analysis.

Assay [2] relates to HMC3 microglia. The experiment in a line: Morphology of HMC3 microglia on BEASTS surfaces after NAC pretreatment. The assay is classed as cell-based, human. Particulars: 0.25 mM NAC pretreatment; after 11 days; all stiffnesses. How it is done: To investigate the protective effect of NAC on stiffness-activated microglia, microglial cells were pretreated with 0.25 and 2.5 mM NAC prior to seeding. After 11 days, the morphology was ramified across all treatments with 0.25 mM NAC (FIG. 17A). ROS production was then measured. […] Next, the genotypes of untreated microglia were compared with NAC-treated microglia and an attenuation was found in each transcript. […] Additionally the MI profile correspondingly attenuated and mechanosensors; however, the M2 marker PPARG increased. To investigate the influence of NAC on caspase-1 stiffness-driven inflammation, the activity of caspase-1 was measured. The activity was reduced in 2 and 8 kPa; however, 25 kPa had increased caspase-1 activity, corroborating the findings with the loss of the CX3CR1 transcript (FIGS. 17E and 17F). […] Together, these findings indicate that pre-treatment of NAC attenuates ROS-driven dysfunction in stiffness-activated microglia. […] BV2 mouse microglia and HMC3 human cells: All cells were grown in aseptic conditions following standard cell culture protocol and stored in an incubator set at 37° C. with 5% CO2. […] Microglia were grown for 11 days and then assessed using qRT-PCR, counting, and luminescent assays.

The test system of assay [3] is HMC3 microglia. The assay can be described thus: Total intracellular ROS (H2DCFDA dye) in microglia on stiffness after NAC pretreatment. It is filed as cell-based, human. Particulars: NAC-pre-treated microglia; 11 days on stiffness (2, 8, 25 kPa). How it is done:
ROS Quantification and Imaging: 5-(and6)-Chloromethyl-2′,7′-dichlorodihydro-fluorescein diacetate (CM-H2DCFDA) is a fluorescent indicator activated by the presence of ROS. The intensity of CM-H2DCFDA was measured by calculating the corrected total cell fluorescence (CTCF) from The Open Lab Book Imaging protocols. Microglial cells were plated onto 12-well plates at a density of 75,000 cells/mL. Microglial cells were grown to confluency and then 10 μM DCF-DA (Invitrogen) was added to all wells, and cells were incubated for a further 30 minutes before analysis of ROS-activated DCF-DA fluorescence (FL-1/525 nm).
(§1) NAC administration in microglial cells: NAC was purchased (Sigma-Aldrich, St. Louis, MO, USA) and was used in treatment after seeding microglial cells for 3 hours with a 2×PBS wash, then replaced with microglia media every 72 hours. Concentrations of 0.25 and 2.5 mM were used 36. Microglia were grown for 11 days and then assessed using qRT-PCR, counting, and luminescent assays.

Assay [4] relates to HMC3 microglia. The assay can be described thus: qRT-PCR gene expression in microglia with and without NAC pretreatment. The assay is classed as cell-based, human. How it is done:
NAC administration in microglial cells: NAC was purchased (Sigma-Aldrich, St. Louis, MO, USA) and was used in treatment after seeding microglial cells for 3 hours with a 2×PBS wash, then replaced with microglia media every 72 hours. Concentrations of 0.25 and 2.5 mM were used 36. Microglia were grown for 11 days and then assessed using qRT-PCR, counting, and luminescent assays. Gene Expression by Quantitative RT-PCR (qRT-PCR): Total RNA expression was extracted from microglial cells using TRIzol reagent (Invitrogen, CA, USA) and RNA samples were quantified by Take3 Micro-Volume Plate reader (BioTek, VT, USA) by spectrophotometry at 260/280 nm. Purity was assessed by an absence of 320 nm. RNA samples were reverse transcribed using the M-MuLV RT reagent Kit (New England BioLabs, MA, USA). Relative mRNA levels were determined by real-time PCR using a SYBR® PowerUp master mix and a real-time PCR detection system (Mastercycler Realplex ep gradient, Eppendorf, Hamburg, Germany). Data were expressed in Ct values normalized to 18S and […] between control (2 kPa) and treated groups (8, 15, 25 kPa) was determined using the 2-ΔΔCt method. The telomerase-associated genes were probed using the TaqManTM Array Human Telomere Extension by Telomerase (Applied Biosystems #4414187) with multiple plates. Briefly, samples were loaded with SYBR® PowerUp master mix and a real-time PCR detection system (Mastercycler Realplex ep gradient, Eppendorf, Hamburg, Germany). Data were expressed in Ct values normalized to endogenous controls provided with the array and […] and older change between groups was determined using the 2-ΔΔCt method.
Background: In qPCR the cycle at which signal appears reflects the starting amount.

The target of assay [5] is T1, caspase-1 (Homo sapiens, UniProt P29466).
T1 construct: endogenous in cells; host or cells: microglial cells (HMC3 inferred)
T1 sequence (P29466 120-297 limits assumed): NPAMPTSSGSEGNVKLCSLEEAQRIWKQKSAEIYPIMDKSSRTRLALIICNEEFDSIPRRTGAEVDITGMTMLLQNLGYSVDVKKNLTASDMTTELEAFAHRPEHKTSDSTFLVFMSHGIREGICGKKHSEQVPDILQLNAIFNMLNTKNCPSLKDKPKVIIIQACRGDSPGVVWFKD
T1 sequence (P29466 317-404 limits assumed): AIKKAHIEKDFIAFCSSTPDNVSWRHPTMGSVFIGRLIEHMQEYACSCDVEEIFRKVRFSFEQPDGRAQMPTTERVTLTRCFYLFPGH
The assay can be described thus: Intracellular caspase-1 activity, bioluminescent assay of microglia. The assay is classed as cell-based. Particulars: NAC pretreatment. As to the method:
(§2) Caspase-1 and Non-canonical Inflammasome Activity Assays: Detection of caspase-1 and non-canonical caspases using a luciferase assay was performed using Caspase-Glo™ Inflammasome Assay (Cat #G9951; Promega, Madison WI, USA) according to the manufacturer's instructions. Briefly, microglial cells were grown in 12-well plates on differing stiffness for 11 days and then plated with a selective caspase-1 substate, Z-WEHD, for catalytically active caspase-1 with or without a caspase-1 specific inhibitor, Ac-YVAD-CHO, to confirm specific activity in parallel samples. The Ac-YVAD-CHO has minimal effect on other cross-reacting caspases 3, 5, and 6, thereby, representing non-canonical inflammatory caspase activity. Total luminescence was measured using a Synergy™ 2 multi-mode microplate reader (BioTek, VT, USA).
as §1

In assay [6] the test system is caspases 3, 5, and 6. The experiment in a line: Non-canonical caspase activity (with Ac-YVAD-CHO) in microglia. It is filed as cell-based, human. The following applies: NAC pre-treatment. How it is done: as §2, with “USA). NAC administration in microglial cells: NAC was purchased (Sigma-Aldrich, St. Louis, MO, USA) and was used in treatment after seeding microglial cells for 3 hours with a 2×PBS wash, then replaced with microglia media every 72 hours. Concentrations of 0.25 and 2.5 mM were used 36. Microglia were grown for 11 days and then assessed using qRT-PCR, counting, and luminescent assays.” for “USA).”

Assay [7] deals with HMC3 microglia. The assay can be described thus: Microglial proliferation and growth on stiffness after NAC pretreatment. The assay is classed as cell-based, human. How it is done:
Cell Count and Growth Analysis: Microglia were seeded in triplicate (7.5×10^5 cells/well) in a 12-well plate and the growth of cells was counted every other day, after which the stiffer matrices reached 100% confluency. At 48 h intervals, cells were trypsinized and counted using trypan blue exclusion tests. The doubling time of each stiffness was calculated with the following formula: […], where C_start is the number of cells at the beginning (day 0), C_end is the number of cells after a period of time t and T is the doubling time. NAC administration in microglial cells: NAC was purchased (Sigma-Aldrich, St. Louis, MO, USA) and was used in treatment after seeding microglial cells for 3 hours with a 2×PBS wash, then replaced with microglia media every 72 hours. Concentrations of 0.25 and 2.5 mM were used 36. Microglia were grown for 11 days and then assessed using qRT-PCR, counting, and luminescent assays.

The mark [8] stands for this setting: HTR8 cells, all three stiffness levels (8, 25, 55 kPa).

The structures appear in SMILES notation. Entries after “also recorded” stand apart in the source; their conditions may differ.

`C[S+]([O-])CCCCN=C=S` (stereo not shown) [sulforaphane, Sulforaphane]: in assay [1] (HTR8 cells on 8 kPa, 25 kPa, and 55 kPa BEASTS surfaces, RT-PCR), the “expression levels of Nrf2-related genes” value was “increase”. Moreover, the GCLM gene expression result in assay [1] (HTR8 cells, 8 kPa and 55 kPa) is “markedly upregulated”. In addition, the HMOX1 gene expression entry in assay [1] (HTR8 cells, 55 kPa) is on record as “markedly upregulated”. In addition, in assay [1] (setting [8]), the GSR gene expression entry is “significantly upregulated” and the NQO1 gene expression result is “significantly upregulated”.
On to `CC(=O)N[C@@H](CS)C(=O)O` [NAC, N-Acetyl-l-Cysteine], for which the microglial morphology entry in assay [2] is given as “ramified”. The ROS production result in assay [3] is “mitigates; also recorded: significantly reduced; also recorded: ameliorates”. Besides, in assay [4] (0.25 mM NAC pretreatment, RT-qPCR, 2, 8, 25 kPa), the “transcripts of NAC-treated versus untreated microglia” value was “attenuation”. For the same molecule, the “inflammatory phenotype of microglia” value in assay [4] (NAC pretreatment, HMC3 cell line on stiffness) is listed as “ameliorates”. Moreover, in assay [4] (NAC pretreatment, qRT-PCR), the PTGS2 expression result was “decrease” and the YAP1 expression entry was “decrease”. For the same molecule, in assay [4] (NAC-treated microglia), the “M1 inflammatory profile (printed MI profile)” value is “attenuated” and the “PPARG (M2 marker) expression” value is recorded as “increased”. In addition, the “CX3CR1 (steady-state marker) expression” value in assay [4] (NAC-treated microglia, 25 kPa) is “decreased substantially”. Moreover, the caspase-1 activity entry in assay [5] (2 and 8 kPa) is “reduced”. Also, in assay [5] (25 kPa), the caspase-1 activity result is recorded as “increased”. Besides, the “activity of non-canonical caspases” value in assay [6] (2 and 8 kPa) is listed as “reduced”. Further, the “activity of non-canonical caspases” value in assay [6] (elevated activity at 25 kPa) is “attenuated”. Moreover, in assay [7], the “stiffness-induced microglial proliferation / growth” value is “mitigates; also recorded: slows”.
